Experimental data from US10976307B2, “Whole cell assays and methods” (Celcuity Inc., priority 2012, dated 2021).

Tests used:
Type in all cases: cell-based, human
[1] = tested on: Patient C2 colon cancer cells; assay: CELx Combination test, impedance biosensor CReMS; details: Patient C2 cells (printed Patient 2), single drug
Protocol: The physiologic change of the C1 and C2 cells during the test was measured with an impedance biosensor CReMS and the output from the CReMS is recorded in FIGS. 3A and 3B.
Between 6,000-12,000 cells in each well were seeded into the impedance microplate containing 120 uL settling media with serum. The solution was replaced with media containing no serum to synchronize the cells with respect to physiologic state. […] The CReMS recording of physiologic change was maintained continuously from when the cells were first seeded on the microplate through complete cellular response, which was between 48-72 hours. The test was performed at 37° C., 5% CO2 and at 75% relative humidity.

[2] = tested on: breast cancer patient cells; assay: CELx Pathway Shutdown single drug test (Example 4), impedance biosensor CReMS; details: one patient breast cancer cell sample expected to be a responder
Protocol: Between 6,000-12,000 cells in each well were seeded onto the impedance microplate containing 120 uL standard media with serum. The solution was replaced with media containing no serum to synchronize the cells with respect to physiologic state and pathway stimulation. Twenty microliters of drugs were added to the no-serum media two hours in advance of pathway stimulation. Pathway stimulation was initiated using EC80 doses of receptor ligand (typically 6 nM in 20 uL). The CReMS recording of physiologic change was maintained continuously for several hours from buffer exchange through complete cellular response to the pathway stimulation. The pathway test was performed at 37° C., 5% CO2 and at a relative humidity 75%.
The physiologic change of the cells and drugs tested was measured with an impedance biosensor CReMS and the summary output from the CReMS is recorded in FIG. 4. The correlation between these CELx test results and the third party clinical reference is recorded in FIG. 7.
In those experiments involving anti-proliferative drugs (capecitabine, docetaxel, fluorouracil, paclitaxel, topotecan, cisplatin, and oxiliplatin), the procedures described in Example 2 were utilized. In those experiments involving a combination of drugs, the procedures described in Example 3 were utilized. The list of patient cells and the drug tested with the cells is characterized in FIG. 4.

[3] = tested on: Patient B1 HER2 overexpressing breast cancer cells; assay: CELx Pathway Shutdown test, impedance biosensor CReMS, EGF stimulation; details: drug added two hours before EGF pathway stimulation, compared to stimulation with no drug
From the text: The change in impedance for a particular well is proportional to the number of cells and type of attachment the cells have with the impedance microplate. Changes in impedance indicate a response to perturbation of these small cell populations.
Prior to addition to the impedance microplate, the cells were removed from their growth container with versene, counted, and re-suspended in media without serum or other growth factors.
The solution was replaced with media containing no serum to synchronize the cells with respect to physiologic state and pathway stimulation. Twenty microliters of drugs were added to the no-serum media two hours in advance of pathway stimulation.

[4] = tested on: Patient B1 breast cancer cells; assay: CELx Anti-Proliferative test, impedance biosensor CReMS; details: continuous recording throughout the test period, untreated control cells
Protocol: (§1) A CELx Anti-Proliferative test was performed using cells from two breast cancer patients (Patients B1 and B2) and the drug Paclitaxel. The physiologic change of the Bland B2 cells during the test was measured with an impedance biosensor CReMS and the output from the CReMS is recorded in FIGS. 2A and 2B. The comparison of the CELx test results and the third party clinical reference is recorded in FIG. 2C.
(§2) The CReMS, microplate, reagents, and buffers used in Example 1 are the same as those employed in Example 2, except for the therapeutic agent tested. In Example 2, the therapeutic agent, paclitaxel, was tested. Paclitaxel was purchased from Selleck Chemicals (TX, USA).
(§3) Between 6,000-12,000 cells in each well were seeded onto the impedance microplate containing 120 uL settling media with serum. Forty microliters of the drug paclitaxel were added to one set each of the B1 and B2 cells; another control set of B1 and B2 cells received no drug. The CReMS recording of physiologic change was maintained continuously from when the cells were first seeded on the microplate through complete cellular response, which was between 48-72 hours. The test was performed at 37° C., 5% CO2 and at 75% relative humidity.

[5] = tested on: Patient B2 breast cancer cells; assay: as above; details: continuous recording
Protocol: as §1, §2, §3

**Q.** Which “responsiveness to each individual drug” value [1] does the source give for CCc1c2c(nc3ccc(OC(=O)N4CCC(N5CCCCC5)CC4)cc13)-c1cc3c(c(=O)n1C2)COC(=O)[C@]3(O)CC [irinotecan, Irinotecan] here?
**A.** responsive

**Q.** For COc1cc2ncnc(Nc3ccc(F)c(Cl)c3)c2cc1OCCCN1CCOCC1 [gelfitinib, gefitinib], which “response in the CReMS testing” value [2] is on record?
**A.** did not show a response

**Q.** CS(=O)(=O)CCNCc1ccc(-c2ccc3ncnc(Nc4ccc(OCc5cccc(F)c5)c(Cl)c4)c3c2)o1 [lapatinib, Lapatinib] was tested. Which “change (decrease) of cell index of the test cells after drug added” value [3] did it give?
**A.** over 50%

**Q.** For CC(=O)O[C@H]1C(=O)[C@@]2(C)[C@H]([C@H](OC(=O)c3ccccc3)[C@]3(O)C[C@H](OC(=O)[C@H](O)[C@@H](NC(=O)c4ccccc4)c4ccccc4)C(C)=C1C3(C)C)[C@]1(OC(C)=O)CO[C@@H]1C[C@@H]2O [Paclitaxel], which “responsiveness: decrease in CReM output compared to control cells” value [4] is on record?
**A.** immediate and continuous responsiveness

**Q.** And the “time after which CReM output reverses (test cells begin proliferating, no longer responsive)” value [5]?
**A.** roughly 24 hours

**Q.** What about the “responsiveness: decrease in CReM output compared to control cells” value ([5]; untreated control cells) of the same compound?
**A.** initial responsiveness
